The record followed here is patent publication US11969402B2, “Compositions and methods for skin rejuvenation” (THE JOHNS HOPKINS UNIVERSITY, priority 2019, dated 2024).

The subject of assay [1] is keratinocytes of Tlr3−/− mice. The experiment in a line: Western blot of stem cell markers in keratinocytes of Tlr3-/- mice. To be noted: keratinocytes or whole skin from Tlr3−/− mice. It is filed as cell-based, mouse. The method, then: Adult keratinocytes isolation and cultures. For human keratinocytes, 3-mm skin biopsies were taken from areas of the occipital scalp through above IRB protocols using enzyme digestion method as described in the literature^30,31. For mouse keratinocytes, tails of adult mice were used and followed by the same protocol of human keratinocytes. Briefly, the skin fragments were incubated in 0.4% dispase II solution overnight at 4° C., allowing separation of epidermis from dermis. Then epidermis was incubated with 0.25% trypsin-EDTA (Lonza, Walkersville, MD) to isolate keratinocytes for 5 min at 37° C. Adult keratinocytes were maintained in KGM including defined growth factors (KGM-GOLD Bullet kit, #192060) (Lonza) and supplemented with 10 μM of ROCK inhibitor (Y-27632) (Cayman Chemical, #10005583) until use^32. For all in vitro experiments, primary keratinocytes were passaged at least once to eliminate contaminating other cells isolated from epidermis and used at passage 2-4 for human and passage 1-2 for mouse keratinocytes.
BMS493 treatment. BMS493 pan-RARs antagonist (1 μM) was pre-treated into keratinocytes for an hour and cells were incubated with RA (0.1 μM and 0.5 μM for human and mouse keratinocytes, respectively) or Poly (I:C) (0.1 μg per ml for both human and mouse keratinocytes) for 48 hrs. At the end of the experiment, cells were harvested for RNA and protein extraction to do further analysis including qRT-PCR and western blot.
Western blot analysis. Human and mouse keratinocytes were disrupted in M-PER lysis buffer (Thermo Fisher Scientific, #78501) containing protease inhibitors (Thermo Fisher Scientific, #87786) using ultrasonic homogenizer (20% power with 5 times every 2 seconds) to extract proteins. Then, protein concentrations were determined by BCA method (Thermo Fisher Scientific, #23225). Western blot procedures were followed by the protocol of NuPAGE system (Thermo Fisher Scientific). […] The signal intensity of protein was quantified using Image Lab software (Bio-Rad). […]
In general terms: A western blot detects proteins with antibodies after separation by electrophoresis.

The test system of assay [2] is human scalp keratinocytes. Nature of the assay: Retinoid levels (RA by LC-MS/MS, ROL and RE by HPLC-UV) in keratinocytes. The class given is cell-based. The source says: Small interference RNA (siRNA) transfection. Human ALDH1A2 (Santa Cruz Biotechnology, sc41443), ALDH1A3 (Santa Cruz Biotechnology, sc43611), TLR3 (Dharmacon, M-007745-00), TRIF (Santa Cruz Biotechnology, sc106845), IRF3 (Santa Cruz Biotechnology, sc35710), NF-κB (Santa Cruz Biotechnology, sc29410) and non-targeting control (scramble) siRNAs (Santa Cruz Biotechnology, sc37007 & Dharmacon, D-001210) were commercially provided. Human scalp keratinocytes (3×10^5 cells per well) in 12-well plates were transfected with 20 nM of siRNAs using Lipofectamine® RNAiMAX (Thermo Fisher Scientific, #13778150) following the manufacturer's directions. Poly (I:C) (0.1 μg per ml) was applied to transfected cells and incubated for 48 hrs. At the end of transfection period, cells were harvested to isolate protein to perform qRT-PCR, western blot, and RA mass spectrometry.
IL6 treatment. Recombinant human interleukin 6 (rhIL6) (R&D system; 206-IL-010) was treated into human scalp keratinocytes with dose-dependent manners (0, 10, 50, and 100 ng per ml) for 2 days. Cells were harvested and lysates were used for RA measurement.
Determination of Retinoid Levels. For in vitro samples, human scalp keratinocytes were incubated with 0.5 μg per ml of Poly (I:C) for 48 hrs or siRNAs-transfected cells were incubated with 0.1 μg per ml of Poly (I:C) for 48 hrs. For in vivo samples, skin was analyzed from wild-type and Tlr3^−/− unwounded and wounded skin where wound regions (center and edge area) were cut by scalpel. Human skin was analyzed for retinoids with and without CO2 laser treatment as described. All samples were frozen at collection and stored at −80° C. until extraction. For in vitro experiments, media and cell pellets were analyzed separately. For in vivo experiments, tissues were homogenized in saline. Extraction of retinoids was performed under yellow lights using a two-step liquid-liquid extraction that has been described in detail previously using 4,4-dimethyl-RA as an internal standard for RA and retinyl acetate as an internal standard for retinol and total retinyl ester^43-46. For the extraction of retinoids, 1 to 3 ml of 0.025 M KOH in ethanol was added to tissue homogenates (in vivo) or cell culture (in vitro) samples. Then 10 ml hexane (for in vivo tissue sample) or 5 ml hexane (for in vitro cell culture sample) was added to the aqueous ethanol phase. The samples were vortexed and centrifuged for 1 to 3 min at 1000 rpm in a Dynac centrifuge (Becton Dickinson) to facilitate phase separation and pellet precipitated protein. The hexane (top) phase containing nonpolar retinoids (ROL and RE) was removed. 4 M HCl (60-180 μl) was added to the remaining aqueous ethanol phase, samples were vortexed, and then polar retinoids (RA) were removed by extraction with a second 5-10 ml aliquot of hexane as described above. […]
Levels of RA were determined by liquid chromatography-multistage tandem mass spectrometry (LC-MRM^3) which is an LC-MS/MS method utilizing two distinct fragmentation events for enhanced selectivity^43. RA was measured using a Shimadzu Prominence UFLC XR liquid chromatography system (Shimadzu, Columbia, MD) coupled to an AB Sciex 5500 or 6500+ QTRAP hybrid triple quadrupole mass spectrometer (AB Sciex, Framingham, MA) using atmospheric pressure chemical ionization (APCI) operated in positive ion mode as previously described^43. […]

On to `CC1=C(/C=C/C(C)=C/C=C/C(C)=C/C(=O)O)C(C)(C)CCC1` [RA, all-trans-retinoic acid], for which the “levels of Krt19, Krt15 and activated β-catenin protein” value in assay [1] is given as “increased”.

In the case of “Polyinosinic-polycytidylic acid [Poly (I:C)]”, in assay [2] (TLR3 siRNA-transfected human keratinocytes, 0.1 μg per ml, 48 hrs), the “Poly (I:C)-induced RA accumulation” value is reported as “dependent on TLR3”. The RA synthesis result in assay [2] (human keratinocytes transfected with MDA5- or RIG-I-siRNA) is recorded as “still induce RA synthesis”. Besides, the “retinol (ROL) and retinyl ester (RE) quantities” value in assay [2] (human keratinocytes treated with Poly (I:C)) was “not modified”. Further, the RA abundance result in assay [2] (human keratinocytes, cell lysates and culture media, 0.5 μg per ml, 48 hrs) is on record as “markedly increased”.
